Reference: US9040545B2, “Heterocyclyl pyrazolopyrimidine analogues as selective JAK inhibitors” (Cellzome Limited, priority 2010, dated 2015)

What was measured:
Aurora B = target: T1, Aurora B (Homo sapiens, UniProt Q96GD4); test: Kinobeads assay, Aurora B; format: binding; settings: for IC50: lysate of pervanadate-treated Jurkat cells, read-out: Inhibition values (IC50) Aur B
T1 construct: cell lysates from Jurkat cells (ATCC TIB-152) used; endogenous in cells; host or cells: Jurkat cells (ATCC TIB-152), treated with pervanadate
T1 sequence (Q96GD4 whole entry): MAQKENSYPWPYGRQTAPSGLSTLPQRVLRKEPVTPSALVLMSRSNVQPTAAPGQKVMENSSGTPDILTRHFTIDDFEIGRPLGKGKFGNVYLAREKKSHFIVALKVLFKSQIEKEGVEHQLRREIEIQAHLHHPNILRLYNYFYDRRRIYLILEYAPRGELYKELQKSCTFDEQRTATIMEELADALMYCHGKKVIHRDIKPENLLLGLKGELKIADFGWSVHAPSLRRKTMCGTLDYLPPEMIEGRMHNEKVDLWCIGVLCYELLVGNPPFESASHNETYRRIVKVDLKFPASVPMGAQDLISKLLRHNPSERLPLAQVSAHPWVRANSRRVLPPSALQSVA
Protocol: (§1) The compounds of the present invention as described in the previous examples were tested in a Kinobeads™ assay as described for ZAP-70 (WO-A 2007/137867). Briefly, test compounds (at various concentrations) and the affinity matrix with the immobilized aminopyrido-pyrimidine ligand 24 were added to cell lysate aliquots and allowed to bind to the proteins in the lysate sample. After the incubation time the beads with captured proteins were separated from the lysate. Bound proteins were then eluted and the presence of JAK2 and JAK3 was detected and quantified using specific antibodies in a dot blot procedure and the Odyssey infrared detection system. Dose response curves for individual kinases were generated and IC50 values calculated. Kinobeads™ assays for ZAP-70 (WO-A 2007/137867) and for kinase selectivity profiling (WO-A 2006/134056) have been previously described.
(§2) The affinity matrix was washed two times with 15 mL of 1×DP buffer containing 0.2% NP40 (IGEPAL® CA-630, Sigma, #I3021) and then resuspended in 1×DP buffer containing 0.2% NP40 (3% beads slurry).
(§3) 5×DP buffer 250 mM Tris-HCl pH 7.4, 25% Glycerol, 7.5 mM MgCl2, 750 mM NaCl, 5 mM Na3VO4; filter the 5×DP buffer through a 0.22 μm filter and store in aliquots at −80° C. The 5×DP buffer is diluted with H2O to 1×DP buffer containing 1 mM DTT and 25 mM NaF.
(§4) Stock solutions of test compounds were prepared in DMSO. In a 96 well plate 30 μL solution of diluted test compounds at 5 mM in DMSO were prepared. Starting with this solution a 1:3 dilution series (9 steps) was prepared. For control experiments (no test compound) a buffer containing 2% DMSO was used.
(§5) Cell lysate (approximately 50 mg protein per plate) was thawed in a water bath at room temperature and then stored on ice. To the thawed cell lysate 1×DP 0.8% NP40 buffer containing protease inhibitors (1 tablet for 25 mL buffer; EDTA-free protease inhibitor cocktail; Roche Diagnostics 1873580) was added in order to reach a final protein concentration of 10 mg/mL total protein. The diluted cell lysate was stored on ice. Mixed Molt4/Ramos lysate was prepared by combining one volume of Molt4 lysate and two volumes of Ramos lysate (ratio 1:2).
To a 96 well filter plate (Multiscreen HTS, BV Filter Plates, Millipore #MSBVN1250) were added per well: 100 μL affinity matrix (3% beads slurry), 3 μL of compound solution, and 50 μL of diluted lysate. Plates were sealed and incubated for 3 hours in a cold room on a plate shaker (Heidolph tiramax 1000) at 750 rpm. Afterwards the plate was washed 3 times with 230 μL washing buffer (1×DP 0.4% NP40). The filter plate was placed on top of a collection 1 plate (Greiner bio-one, PP-microplate 96 well V-shape, 65120) and the beads were then eluted with 20 μL of sample buffer (100 mM Tris, pH 7.4, 4% SDS, 0.00025% bromophenol blue, 20% glycerol, 50 mM DTT). The eluate was frozen quickly at −80° C. and stored at −20° C.
The kinases in the eluates were detected and quantified by spotting on nitrocellulose membranes and using a first antibody directed against the kinase of interest and a fluorescently labelled secondary antibody (anti-rabbit IRDye™ antibody 800 (Licor, #926-32211). The Odyssey Infrared Imaging system from LI-COR Biosciences (Lincoln, Nebr., USA) was operated according to instructions provided by the manufacturer (Schutz-Geschwendener et al, 2004. Quantitative, two-color Western blot detection with infrared fluorescence. Published May 2004 by LI-COR Biosciences, www.licor.com).
After spotting of the eluates the nitrocellulose membrane (BioTrace NT; PALL, #BTNT30R) was first blocked by incubation with Odyssey blocking buffer (LICOR, 927-40000) for 1 hour at room temperature. Blocked membranes were then incubated for 16 hours at the temperature shown in Table 5 with the first antibody diluted in Odyssey blocking buffer (LICOR #927-40000). Afterwards the membrane was washed twice for 10 minutes with PBS buffer containing 0.2% Tween 20 at room temperature. […]

JAK2 = target: T2, JAK2 (Homo sapiens, UniProt O60674); test: Kinobeads assay, JAK2; format: binding; settings: mixed Molt4/Ramos lysate, read-out: Inhibition values (IC50) JAK2
T2 construct: endogenous in cells; host or cells: mixed Molt4/Ramos lysate (1:2)
T2 sequence (O60674 whole entry): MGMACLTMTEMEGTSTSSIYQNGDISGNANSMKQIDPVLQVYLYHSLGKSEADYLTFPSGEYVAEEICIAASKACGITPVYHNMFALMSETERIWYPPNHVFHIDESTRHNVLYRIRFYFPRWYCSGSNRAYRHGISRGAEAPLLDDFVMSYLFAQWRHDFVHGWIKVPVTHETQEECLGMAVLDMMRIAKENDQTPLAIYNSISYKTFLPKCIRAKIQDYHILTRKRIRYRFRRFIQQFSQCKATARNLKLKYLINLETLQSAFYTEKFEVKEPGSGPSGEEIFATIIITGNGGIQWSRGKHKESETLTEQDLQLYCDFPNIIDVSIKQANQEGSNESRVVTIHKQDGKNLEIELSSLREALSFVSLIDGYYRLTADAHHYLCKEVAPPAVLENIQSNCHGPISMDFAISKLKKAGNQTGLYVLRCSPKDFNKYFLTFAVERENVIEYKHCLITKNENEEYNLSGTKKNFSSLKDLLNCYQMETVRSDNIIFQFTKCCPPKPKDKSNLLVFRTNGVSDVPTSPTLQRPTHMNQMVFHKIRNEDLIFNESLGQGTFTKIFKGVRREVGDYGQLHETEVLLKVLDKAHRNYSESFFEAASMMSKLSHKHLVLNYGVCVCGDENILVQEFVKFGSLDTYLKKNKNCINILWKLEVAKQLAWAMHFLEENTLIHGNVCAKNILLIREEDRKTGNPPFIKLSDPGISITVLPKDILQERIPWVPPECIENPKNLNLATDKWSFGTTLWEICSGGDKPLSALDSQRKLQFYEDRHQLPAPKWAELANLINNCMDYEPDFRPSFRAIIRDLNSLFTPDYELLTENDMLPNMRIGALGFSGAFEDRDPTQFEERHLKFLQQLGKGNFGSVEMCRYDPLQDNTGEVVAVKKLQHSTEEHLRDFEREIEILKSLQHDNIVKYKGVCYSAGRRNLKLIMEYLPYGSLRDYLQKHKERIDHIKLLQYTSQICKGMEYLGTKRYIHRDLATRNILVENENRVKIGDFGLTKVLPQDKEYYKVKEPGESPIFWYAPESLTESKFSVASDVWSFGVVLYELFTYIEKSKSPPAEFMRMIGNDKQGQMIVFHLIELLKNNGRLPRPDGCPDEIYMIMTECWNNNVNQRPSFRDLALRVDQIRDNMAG
Protocol: as §1, §2, §3, §4
Molt4 cells (ATCC catalogue number CRL-1582) and Ramos cells (ATCC catalogue number CRL-1596) were grown in 1 L Spinner flasks (Integra Biosciences, #182101) in suspension in RPMI 1640 medium (Invitrogen, #21875-034) supplemented with 10% Fetal Bovine Serum (Invitrogen) at a density between 0.15×106 and 1.2×10^6 cells/mL. Cells were harvested by centrifugation, washed once with 1×PBS buffer (Invitrogen, #14190-094) and cell pellets were frozen in liquid nitrogen and subsequently stored at −80° C. Cells were homogenized in a Potter S homogenizer in lysis buffer: 50 mM Tris-HCl, 0.8% NP40, 5% glycerol, 150 mM NaCl, 1.5 mM MgCl2, 25 mM NaF, 1 mM sodium vanadate, 1 mM DTT, pH 7.5. One complete EDTA-free tablet (protease inhibitor cocktail, Roche Diagnostics, 1873580) per 25 mL buffer was added. The material was dounced 10 times using a mechanized POTTER S, transferred to 50 mL falcon tubes, incubated for 30 minutes on ice and spun down for 10 minutes at 20,000 g at 4° C. (10,000 rpm in Sorvall SLA600, precooled). The supernatant was transferred to an ultracentrifuge (UZ)-polycarbonate tube (Beckmann, 355654) and spun for 1 hour at 100,000 g at 4° C. (33.500 rpm in Ti50.2, precooled). The supernatant was transferred again to a fresh 50 mL falcon tube, the protein concentration was determined by a Bradford assay (BioRad) and samples containing 50 mg of protein per aliquot were prepared. The samples were immediately used for experiments or frozen in liquid nitrogen and stored frozen at −80° C.
as §5
To a 96 well filter plate (Multiscreen HTS, BV Filter Plates, Millipore #MSBVN1250) were added per well: 100 μL affinity matrix (3% beads slurry), 3 μL of compound solution, and 50 μL of diluted lysate. […]

JAK3/AurB Fold Selectivity (Aurora B) | IC50 (Aurora B) [µM] | IC50 (JAK2) [µM] | SMILES
10-50 Fold | 1 to 10 | ≥ 10 | O=C(CCn1cc(Nc2ncc3cnn(Cc4cccc(N5CCOCC5)c4)c3n2)cn1)NC1CC1 [Example 35, N-Cyclopropyl-3-(4-((1-(3-morpholinobenzyl)-1H-pyrazolo[3,4-d]pyrimidin-6-yl)amino)-1H-pyrazol-1-yl)propanamide]
10-50 Fold | 0.1 to 1 | 1 to 10 | Cn1cc(Nc2ncc3cnn(Cc4cccc(N5CCOCC5=O)c4F)c3n2)cn1 [Example 40, 4-(2-Fluoro-3-((6-((1-methyl-1H-pyrazol-4-yl)amino)-1H-pyrazolo[3,4-d]pyrimidin-1-yl)methyl)phenyl)morpholin-3-one]
10-50 Fold | 1 to 10 | ≥ 10 | CNCC1(Cn2cc(Nc3ncc4cnn(Cc5cccc(N6CCOCC6)c5)c4n3)cn2)COC1 [Example 41, N-(1-((3-((Methylamino)methyl)oxetan-3-yl)methyl)-1H-pyrazol-4-yl)-1-(3-morpholinobenzyl)-1H-pyrazolo[3,4-d]pyrimidin-6-amine]
>50 Fold | 1 to 10 | ≥ 10 | Cn1cc(Nc2ncc3cnn(Cc4cccc(N5CC6(COC6)C5)c4)c3n2)cn1 [Example 89, 1-(3-(2-oxa-6-azaspiro[3.3]heptan-6-yl)benzyl)-N-(1-methyl-1H-pyrazol-4-yl)-1H-pyrazolo[3,4-d]pyrimidin-6-amine]
>50 Fold | 1 to 10 | 1 to 10 | Fc1cc(N2CCOCC2)c(F)c(Cn2ncc3cnc(Nc4cnn(CC5CCNC5)c4)nc32)c1F (stereo not drawn) [Example 94, N-(1-(pyrrolidin-3-ylmethyl)-1H-pyrazol-4-yl)-1-(2,3,6-trifluoro-5-morpholinobenzyl)-1H-pyrazolo[3,4-d]pyrimidin-6-amine]
>50 Fold | 1 to 10 | 1 to 10 | CN(C)CC(F)Cn1cc(Nc2ncc3cnn(Cc4cc(F)cc(N5CCOCC5=O)c4)c3n2)cn1 (stereo not drawn) [Example 97, 4-(3-((6-((1-(3-(dimethylamino)-2-fluoropropyl)-1H-pyrazol-4-yl)amino)-1H-pyrazolo[3,4-d]pyrimidin-1-yl)methyl)-5-fluorophenyl)morpholin-3-one]

Further lines, the compound ahead of its results:

SMILES | JAK3/AurB Fold Selectivity (Aurora B) | IC50 (Aurora B) [µM] | IC50 (JAK2) [µM]
Cn1cc(Nc2ncc3cnn(Cc4cccc(N5CCNCC5=O)c4)c3n2)cn1 [Example 36, 1-(3-((6-((1-Methyl-1H-pyrazol-4-yl)amino)-1H-pyrazolo[3,4-d]pyrimidin-1-yl)methyl)phenyl)piperazin-2-one] | 10-50 Fold | 1 to 10 | ≥ 10
Cn1cc(Nc2ncc3cnn(Cc4cc(N5CCOCC5)cc(F)c4F)c3n2)cn1 [Example 37, 1-(2,3-Difluoro-5-morpholinobenzyl)-N-(1-methyl-1H-pyrazol-4-yl)-1H-pyrazolo[3,4-d]pyrimidin-6-amine] | >50 Fold | 1 to 10 | ≥ 10
Cn1cc(Nc2ncc3cnn(Cc4c(F)ccc(N5CCOCC5)c4F)c3n2)cn1 [Example 38, 1-(2,6-Difluoro-3-morpholinobenzyl)-N-(1-methyl-1H-pyrazol-4-yl)-1H-pyrazolo[3,4-d]pyrimidin-6-amine] | 10-50 Fold | 0.1 to 1 | ≥ 10
OCCn1cc(Nc2ncc3cnn(Cc4cccc(N5CCOCC5)c4F)c3n2)cn1 [Example 39, 2-(4-((1-(2-Fluoro-3-morpholinobenzyl)-1H-pyrazolo[3,4-d]pyrimidin-6-yl)amino)-1H-pyrazol-1-yl)ethanol] | 10-50 Fold | 0.1 to 1 | 1 to 10
Cn1cc(Nc2ncc3cnn(Cc4cc(F)cc(N5CC6(COC6)C5)c4)c3n2)cn1 [Example 90, 1-(3-fluoro-5-(2-oxa-6-azaspiro[3.3]heptan-6-yl)benzyl)-N-(1-methyl-1H-pyrazol-4-yl)-1H-pyrazolo[3,4-d]pyrimidin-6-amine] | >50 Fold | 1 to 10 | 1 to 10
Cn1cc(Nc2ncc3cnn(Cc4cccc(N5CC6(COC6)C5)c4F)c3n2)cn1 [Example 91, 1-(2-fluoro-3-(2-oxa-6-azaspiro[3.3]heptan-6-yl)benzyl)-N-(1-methyl-1H-pyrazol-4-yl)-1H-pyrazolo[3,4-d]pyrimidin-6-amine] | >50 Fold | 1 to 10 | 1 to 10
Cn1cc(Nc2ncc3cnn(Cc4cc(F)cc(N5CCNCC5)c4)c3n2)cn1 [Example 92, 1-(3-fluoro-5-(piperazin-1-yl)benzyl)-N-(1-methyl-1H-pyrazol-4-yl)-1H-pyrazolo[3,4-d]pyrimidin-6-amine] | >50 Fold | 0.1 to 1 | 1 to 10
OCCn1cc(Nc2ncc3cnn(Cc4cc(F)cc(N5CCNCC5)c4)c3n2)cn1 [Example 93, 2-(4-((1-(3-fluoro-5-(piperazin-1-yl)benzyl)-1H-pyrazolo[3,4-d]pyrimidin-6-yl)amino)-1H-pyrazol-1-yl)ethanol] | 10-50 Fold | 0.1 to 1 | 1 to 10
Cn1cc(Nc2ncc3cnn(Cc4cc(F)cc(N5CCNCC5)c4F)c3n2)cn1 [Example 95, 1-(2,5-difluoro-3-(piperazin-1-yl)benzyl)-N-(1-methyl-1H-pyrazol-4-yl)-1H-pyrazolo[3,4-d]pyrimidin-6-amine] | 10-50 Fold | 0.1 to 1 | 0.1 to 1
OCCn1cc(Nc2ncc3cnn(Cc4cc(F)cc(N5CCNCC5)c4F)c3n2)cn1 [Example 96, 2-(4-((1-(2,5-difluoro-3-(piperazin-1-yl)benzyl)-1H-pyrazolo[3,4-d]pyrimidin-6-yl)amino)-1H-pyrazol-1-yl)ethanol] | >50 Fold | ≥ 10 | 0.1 to 1
